# Laboratory results published in PubChem BioAssay AID2060497 (Molecular Pharmacology Branch, DTP, NCI, 2025).
# Tested on: 317291-083-R-J1-PDC complex spheroids, viability
# Assay: Anticancer human tumor 317291-083-R-J1-PDC patient-derived soft tissue sarcoma cell line growth inhibition [GQUAD]
# Details: for IC50: curve of first compound; for viability, T/C: stronger effect = lower value
# Source text: DNA G-quadruplex Stabilizer Agents in Combinations in Complex Spheroids
# A high-throughput screen of multi-cell type tumor spheroids was designed to identify active combinations of DNA G-quadruplex stabilizer agents and targeted small molecules. Complex spheroids include a stromal component modeled by human endothelial cells (HUVEC) and fibroblasts modeled by human mesenchymal stem cells (MSCs). The concentration ranges selected for each drug and investigational agent were based upon clinically achievable concentrations if the clinical Cmax of the agent was known.
# Compounds. The drugs and investigational agents: pidnarulex (CX-5461; NSC782164), APTO-253 (NSC789042), BRACO-19 (NSC847499), peposertib (NSC802822), ceralasertib (NSC780249), elimusertib (NSC800525), camonsertib (NSC841442), AZD-1390 (NSC803789), olaparib (NSC753686), talazoparib (NSC767125), ART-558 (NSC835418), sotorasib (NSC818433), MRTX-1133 (NSC836407), SN-38 (NSC673596), topotecan (NSC609699), etoposide (NSC141540), doxorubicin (NSC123127), gemcitabine (NSC613327), 5-fluorouracil (NSC19893), paclitaxel (NSC125973), vemurafenib (NSC761431), panobinostat (NSC761190), R-306465 (JNJ-16241199; NSC773264), adavosertib (NSC754352), TP-3654 (NSC805149), carboplatin (NSC241240), KSQ-4279 (NSC840948), and staurosporine (NSC755774) were obtained from the National Cancer Institute (NCI) Developmental Therapeutics Program Chemical Repository (34). The FDA-approved anticancer drug set is available from the NCI Developmental Therapeutics Program. […] The stock solutions were prepared in dimethyl sulfoxide (DMSO, Sigma-Aldrich, St. Louis, MO, cat. D2650) at 800-fold the tested concentration and stored at -70 degrees C prior to their use. All drugs and investigational agents were tested over a range starting from a high concentration at or near the clinical Cmax and decreasing in half-log increments. If the clinical Cmax for an agent had not been determined, the highest concentration tested was 10 microM.
# 2.3 Cell Culture. All cells were maintained in an incubator at 37 degrees C and 5% CO2 with 95% humidity. The PDC lines were cultured according to standard operating procedures established by the NCI PDMR. All PDCs were thawed and cultured in Matrigel-coated flasks prepared with a working solution of 1X Ham's F-12 nutrient mix, without supplementation (Invitrogen, cat. 11765054), 100 U/mL penicillin-streptomycin (Invitrogen, cat. 15140122), and 2.5% Matrigel (Corning Inc., cat. 354248) for the first three passages. The 857933-349-R-J2-PDC line was cultured in 6C/Colon 1B media, which includes advanced DMEM/F-12 (Thermo Fisher Scientific, cat. 12634028), 10 mM HEPES (Thermo Fisher Scientific, cat. 15630080), 1X GlutaMAX supplement (Thermo Fisher Scientific, cat. 35050061), 0.1 mg/mL primocin (InvivoGen, cat. ant-pm-2), 10% defined fetal bovine serum, heat inactivated (HyClone Laboratories Inc., cat. SH30070.03HI), 50% L-WRN conditioned media (ATCC, cat. CRL-3276), 1.25 mM N-Acetyl-L-cysteine (Sigma-Aldrich, cat. A9165), 10 mM nicotinamide (Sigma-Aldrich, cat. N0636), 1X B-27 supplement (Thermo Fisher Scientific, cat. 17504044), 1X N-2 supplement (Thermo Fisher Scientific, cat. 17502048), 10 microM Y-27632 dihydrochloride (Tocris Bioscience, cat. 1254), and 50 ng/mL human EGF recombinant protein (Thermo Fisher Scientific, cat. PHG0311). The 485176-168-R4-J1-PDC line was cultured in Panc media, which includes all 6C/Colon 1B media components plus 100 ng/mL human FGF-10 (Thermo Fisher Scientific, cat. 100-26), 500 nM SB-431542 (Selleckchem, cat. S1067), and gastrin (Tocris, cat. 3006).
# […]
# [1] = second compound 0.0316 µM, first compound 0.0316 µM
# [2] = second compound 0.0316 µM, first compound 0.1 µM
# [3] = second compound 0.0316 µM, first compound 0.316 µM
# [4] = second compound 0.0316 µM, first compound 1 µM
# [5] = second compound 0.0316 µM, first compound 3.16 µM
# [6] = second compound 0.0316 µM, first compound 10 µM
# [7] = second compound 0.1 µM, first compound 0.0316 µM
# [8] = second compound 0.1 µM, first compound 0.1 µM
# [9] = second compound 0.1 µM, first compound 0.316 µM
# [10] = second compound 0.1 µM, first compound 1 µM
# [11] = second compound 0.1 µM, first compound 3.16 µM
# [12] = second compound 0.1 µM, first compound 10 µM
# [13] = second compound 0.316 µM, first compound 0.0316 µM
# [14] = second compound 0.316 µM, first compound 0.1 µM
# [15] = second compound 0.316 µM, first compound 0.316 µM
# [16] = second compound 0.316 µM, first compound 1 µM
# [17] = second compound 0.316 µM, first compound 3.16 µM
# [18] = second compound 0.316 µM, first compound 10 µM
# [19] = second compound 1 µM, first compound 0.0316 µM
# [20] = second compound 1 µM, first compound 0.1 µM
# [21] = second compound 1 µM, first compound 0.316 µM
# [22] = second compound 1 µM, first compound 1 µM
# [23] = second compound 1 µM, first compound 3.16 µM
# [24] = second compound 1 µM, first compound 10 µM
# [25] = second compound 3.16 µM, first compound 0.0316 µM
# [26] = second compound 3.16 µM, first compound 0.1 µM
# [27] = second compound 3.16 µM, first compound 0.316 µM
# [28] = second compound 3.16 µM, first compound 1 µM
# [29] = second compound 3.16 µM, first compound 3.16 µM
# [30] = second compound 3.16 µM, first compound 10 µM
# [31] = second compound 10 µM, first compound 0.0316 µM
# [32] = second compound 10 µM, first compound 0.1 µM
# [33] = second compound 10 µM, first compound 0.316 µM
# [34] = second compound 10 µM, first compound 1 µM
# [35] = second compound 10 µM, first compound 3.16 µM
# [36] = second compound 10 µM, first compound 10 µM
# 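Note: spheroids exposed to compounds for one week before readout.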
# 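Throughout, for viability, T/C: percent viability relative to DMSO vehicle wells taken as 100%.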
smiles,measurement,setting,value
O=c1[nH]cc(F)c(=O)[nH]1 + CN(C)c1ccc(Nc2c3ccc(NC(=O)CCN4CCCC4)cc3nc3cc(NC(=O)CCN4CCCC4)ccc23)cc1,IC50,second compound 0.0316 µM,2.32 µM
same,IC50,second compound 0.1 µM,2.44 µM
same,IC50,second compound 0.316 µM,1.76 µM
same,IC50,second compound 1 µM,0.0316 µM
same,IC50,second compound 3.16 µM,< 0.0316 µM
same,IC50,second compound 10 µM,< 0.0316 µM
same,"viability, T/C",[1],91.6%
same,"viability, T/C",[2],83.3%
same,"viability, T/C",[3],101%
same,"viability, T/C",[4],74.3%
same,"viability, T/C",[5],43.5%
same,"viability, T/C",[6],38.5%
same,"viability, T/C",[7],110%
same,"viability, T/C",[8],106%
same,"viability, T/C",[9],103%
same,"viability, T/C",[10],69.7%
same,"viability, T/C",[11],46.2%
same,"viability, T/C",[12],36.6%
same,"viability, T/C",[13],89.4%
same,"viability, T/C",[14],74.7%
same,"viability, T/C",[15],83.2%
same,"viability, T/C",[16],56.4%
same,"viability, T/C",[17],42.1%
same,"viability, T/C",[18],29.5%
same,"viability, T/C",[19],53.2%
same,"viability, T/C",[20],43.2%
same,"viability, T/C",[21],51.1%
same,"viability, T/C",[22],21.3%
same,"viability, T/C",[23],29.4%
same,"viability, T/C",[24],23.3%
same,"viability, T/C",[25],36.6%
same,"viability, T/C",[26],27.3%
same,"viability, T/C",[27],35.1%
same,"viability, T/C",[28],26.8%
same,"viability, T/C",[29],27.2%
same,"viability, T/C",[30],22.6%
same,"viability, T/C",[31],7.27%
same,"viability, T/C",[32],5.52%
same,"viability, T/C",[33],17%
same,"viability, T/C",[34],11.3%
same,"viability, T/C",[35],9.24%
same,"viability, T/C",[36],7.86%
COc1cccc2c1C(=O)c1c(O)c3c(c(O)c1C2=O)CC(O)(C(=O)CO)CC3OC1CC(N)C(O)C(C)O1 (stereo unspecified) + Cc1[nH]c2ccc(F)cc2c1-c1nc2c3cccnc3c3ncccc3c2[nH]1,IC50,second compound 0.0316 µM,0.081 µM
same,IC50,second compound 0.1 µM,0.0721 µM
same,IC50,second compound 0.316 µM,0.0774 µM
same,IC50,second compound 1 µM,0.135 µM
same,IC50,second compound 3.16 µM,0.0655 µM
same,IC50,second compound 10 µM,0.0652 µM
same,"viability, T/C",[1],112%
same,"viability, T/C",[2],31.8%
same,"viability, T/C",[3],21.9%
same,"viability, T/C",[4],9.79%
same,"viability, T/C",[5],0.88%
same,"viability, T/C",[6],4.17%
same,"viability, T/C",[7],80.3%
same,"viability, T/C",[8],35.4%
same,"viability, T/C",[9],21.6%
same,"viability, T/C",[10],8.91%
same,"viability, T/C",[11],1.29%
same,"viability, T/C",[12],2.78%
same,"viability, T/C",[13],88.3%
same,"viability, T/C",[14],36.5%
same,"viability, T/C",[15],19.7%
same,"viability, T/C",[16],13.5%
same,"viability, T/C",[17],1.55%
same,"viability, T/C",[18],3.24%
same,"viability, T/C",[19],89.8%
same,"viability, T/C",[20],60.3%
same,"viability, T/C",[21],21.3%
same,"viability, T/C",[22],11.1%
same,"viability, T/C",[23],1.17%
same,"viability, T/C",[24],1.78%
same,"viability, T/C",[25],77%
same,"viability, T/C",[26],31.2%
same,"viability, T/C",[27],18%
same,"viability, T/C",[28],16.5%
same,"viability, T/C",[29],1.5%
same,"viability, T/C",[30],1.98%
same,"viability, T/C",[31],68.3%
same,"viability, T/C",[32],39.3%
same,"viability, T/C",[33],16.9%
same,"viability, T/C",[34],8.13%
same,"viability, T/C",[35],1.49%
same,"viability, T/C",[36],2.3%
CCCS(=O)(=O)Nc1ccc(F)c(C(=O)c2c[nH]c3ncc(-c4ccc(Cl)cc4)cc23)c1F + Cc1[nH]c2ccc(F)cc2c1-c1nc2c3cccnc3c3ncccc3c2[nH]1,IC50,second compound 0.0316 µM,2.61 µM
same,IC50,second compound 0.1 µM,2.61 µM
same,IC50,second compound 0.316 µM,1.76 µM
same,IC50,second compound 1 µM,0.343 µM
same,IC50,second compound 3.16 µM,< 0.0316 µM
same,IC50,second compound 10 µM,< 0.0316 µM
same,"viability, T/C",[1],110%
same,"viability, T/C",[2],103%
same,"viability, T/C",[3],95.6%
same,"viability, T/C",[4],89.2%
same,"viability, T/C",[5],41.7%
same,"viability, T/C",[6],14.3%
same,"viability, T/C",[7],95.5%
same,"viability, T/C",[8],88.3%
same,"viability, T/C",[9],83.5%
same,"viability, T/C",[10],94.3%
same,"viability, T/C",[11],41.9%
same,"viability, T/C",[12],14%
same,"viability, T/C",[13],73.5%
same,"viability, T/C",[14],72.5%
same,"viability, T/C",[15],67.1%
same,"viability, T/C",[16],67.8%
same,"viability, T/C",[17],31.7%
same,"viability, T/C",[18],10.3%
same,"viability, T/C",[19],62.1%
same,"viability, T/C",[20],61%
same,"viability, T/C",[21],41.5%
same,"viability, T/C",[22],41.6%
same,"viability, T/C",[23],37.7%
same,"viability, T/C",[24],11.3%
same,"viability, T/C",[25],46%
same,"viability, T/C",[26],26.5%
same,"viability, T/C",[27],30.2%
same,"viability, T/C",[28],19.9%
same,"viability, T/C",[29],15.9%
same,"viability, T/C",[30],5.4%
same,"viability, T/C",[31],40.7%
same,"viability, T/C",[32],47.5%
same,"viability, T/C",[33],42.4%
same,"viability, T/C",[34],49.3%
same,"viability, T/C",[35],25.3%
same,"viability, T/C",[36],6.95%
